{
  "source": "patent US5520918A",
  "about": "“Low irritant skin-cosmetic composition for daily topical use, its application and manufacture” (Mary Kay Cosmetics, Inc., priority 1994, dated 1996)",
  "key": {"skin pH": {"tested_on": "skin pH", "assay": "Test I: duration of skin pH changes", "type": "in vivo, human (volunteer subjects)", "conditions": "text to Test I", "method": "Tests were performed on volunteer subjects using the procedures, conditions and ingredients substantially as described in connection with Test F above, while employing the proportion of active acidic ingredients indicated."}, "hair-loss": {"tested_on": "hair-loss", "assay": "Hair-loss prevention efficacy of minoxidil combined with the two-component acid system (preliminary data)", "type": "in vivo"}},
  "data": [
    {"smiles": "O=C(O)C(O)C(O)C(=O)O", "note": "(stereo not drawn) [(+)tartaric acid]", "values": [
      {"measurement": "duration of impact on skin pH changes", "setting": "skin pH", "result": 2, "unit": "hours"}
    ]},
    {"smiles": "Nc1cc(N2CCCCC2)nc(N)[n+]1[O-]", "note": "[minoxidil]", "values": [
      {"measurement": "efficacy of minoxidil in combination (in words)", "setting": "hair-loss", "result": "enhanced by combination with the inventive two-component acid system"}
    ]},
    {"smiles": "O=C(O)c1ccccc1O", "note": "[salicylic acid, 2-hydroxybenzoic acid]", "values": [
      {"measurement": "water solubility (in words)", "result": "only moderately or sparingly water soluble"},
      {"measurement": "water solubility", "setting": "text to Test I", "result": "less than 1 g. in 5 ml. of water"}
    ]}
  ]
}
